The structures appear in SMILES notation.

This assay deals with T1, HCV NS3/4A protease complex, J4L6S strain (Hepatitis C virus genotype 1b, UniProt O92972, C1454S/C1711G).
T1 construct: recombinant HCV NS3/4A protease complex (amino acids 1027 to 1711); inferred from pET21b vector and Ni-NTA purification; made in house; host or cells: Escherichia coli BL21 (DE3), pET21b
Briefly: Recombinant HCV NS3/4A protease complex FRET peptide assay (J4L6S strain). The assay is classed as biochemical, HCV genotype 1b. The source says:
Recombinant HCV NS3/4A Protease Complex FRET Peptide Assay
The purpose of this in vitro assay was to measure the inhibition of HCV NS3 protease complexes, derived from the BMS, H77C or J416S strains, as described below, by compounds of the present invention. This assay provides an indication of how effective compounds of the present invention would be in inhibiting HCV proteolytic activity.
Serum from an HCV-infected patient was obtained from Dr. T. Wright, San Francisco Hospital. An engineered full-length cDNA (compliment deoxyribonucleic acid) template of the HCV genome (BMS strain) was constructed from DNA fragments obtained by reverse transcription-PCR(RT-PCR) of serum RNA (ribonucleic acid) and using primers selected on the basis of homology between other genotype 1a strains. From the determination of the entire genome sequence, a genotype 1a was assigned to the HCV isolate according to the classification of Simmonds et al. (See P Simmonds, Kans. Rose, S Graham, S W Chan, F McOmish, B C Dow, E A Follett, P L Yap and H Marsden, J. Clin. Microbiol., 31(6), 1493-1503 (1993)). […]

T1 sequence (O92972 1027-1711 C1454S/C1711G, one chain of several): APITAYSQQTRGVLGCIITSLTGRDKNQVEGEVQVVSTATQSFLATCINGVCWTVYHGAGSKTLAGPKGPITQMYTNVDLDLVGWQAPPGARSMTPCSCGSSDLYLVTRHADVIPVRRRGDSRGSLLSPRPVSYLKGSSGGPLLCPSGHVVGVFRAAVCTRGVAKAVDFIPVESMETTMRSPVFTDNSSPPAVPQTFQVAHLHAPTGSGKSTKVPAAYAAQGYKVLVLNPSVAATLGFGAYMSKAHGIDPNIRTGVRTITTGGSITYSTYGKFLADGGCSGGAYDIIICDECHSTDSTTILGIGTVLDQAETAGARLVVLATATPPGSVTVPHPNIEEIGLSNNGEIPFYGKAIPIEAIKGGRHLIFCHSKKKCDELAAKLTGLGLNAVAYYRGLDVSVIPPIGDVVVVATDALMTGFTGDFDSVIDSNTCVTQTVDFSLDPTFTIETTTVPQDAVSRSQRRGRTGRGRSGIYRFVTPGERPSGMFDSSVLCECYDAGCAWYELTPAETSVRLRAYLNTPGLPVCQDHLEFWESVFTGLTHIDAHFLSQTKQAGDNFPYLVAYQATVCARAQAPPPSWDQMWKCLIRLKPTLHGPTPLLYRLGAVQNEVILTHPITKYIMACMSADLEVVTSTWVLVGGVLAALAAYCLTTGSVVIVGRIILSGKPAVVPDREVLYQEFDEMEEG

A word on the IC50: it is the concentration that inhibits the measured activity by half. For `C=C[C@@H]1C[C@]1(NC(=O)[C@@H]1C[C@@H](Oc2nc(C3CC3)cc3ccccc23)CN1C(=O)[C@@H](NC(=O)OC(C)(C)C)C(C)(C)C)C(=O)NS(=O)(=O)C1CC1` [Compound 34], the IC50 amounted to 2.9 nM.

The record behind these values is patent US7915291B2, “Hepatitis C virus inhibitors” (Bristol-Myers Squibb Company, priority 2002, dated 2011).
